Data from patent US10940139B2, “Compounds that interact with the Ras superfamily for the treatment of cancers, inflammatory diseases, rasopathies, and fibrotic disease” (Shy Therapeutics LLC, priority 2017, dated 2021).

Target: KRas G12D/Q61H double mutant (Homo sapiens (Human), UniProt P01116, G12D/Q61H)
Assay: Ras GTP binding domain inhibition assay (labeled GTP)
Settings: 20 μM compound; read-out: % Inhibition at 20 μM KRas G12D Q61H
Method: Buffer-I: • 50 mM Tris, pH 7.5 • 150 mM NaCl (optional) • 1 mM MgCl2 • 1 mM DTT. • KRas G12D mutant protein was expressed as a His-tagged protein. Purified His-KRas G12D protein was diluted in buffer-I to a final concentration of 3-10 μg/ml. • 200 μl of the diluted His-KRas G12D protein was added to a nickel coated 96 well plate and incubated overnight at 4° C. • The next day, wells were washed 3× in 200 μl of Buffer-I. • Then 200 μl of Buffer-I were added to each well in the presence of 1% DMSO. • Tested compounds were added to the protein-coated wells at a concentration of 20 μM, and incubated for 3 hours at room temperature. While performing IC50 measurements a serial dilution of all tested concentrations was prepared.
Then 22 μl of Cy3-GTP or Cy5-GTP was added to each well. The labeled GTP was incubated for 45 min. at room temperature. • Following GTP incubation, wells were washed 3× in Buffer-I, and 200 μl of Buffer-I were added to each well. • Following washes, the amount of bound labeled-GTP was measured with an Eppendorf AF2200 plate reader.
By substituting KRas G12D mutant protein with KRas G12C mutant, KRas wild type, KRas Q61H mutant, KRas G12D/Q61H double mutant or KRas G12C/Q61H double mutant under the assay conditions described above, KRas G12C mutant KRas wild type, KRas Q61H mutant, KRas G12D/Q61H double mutant and KRas G12C/Q61H double mutant inhibition, respectively, were each determined.

Chain of KRas G12D/Q61H double mutant (P01116-2 other isoform, or with tags, fused parts or gaps G12D/Q61H): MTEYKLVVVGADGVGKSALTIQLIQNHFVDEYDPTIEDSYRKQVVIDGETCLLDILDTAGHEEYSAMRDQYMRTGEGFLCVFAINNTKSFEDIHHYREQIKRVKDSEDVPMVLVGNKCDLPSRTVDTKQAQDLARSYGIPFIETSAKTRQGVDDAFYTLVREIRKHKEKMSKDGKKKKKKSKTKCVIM

Row | Structure (SMILES) | inhibition at 20 µM [%]
1 | O=C(Cc1ccc(Cl)cc1)Nc1nnc(-c2ccccn2)[nH]1 | 25 to 50
2 | O=C(Nc1nnc(-c2ccccn2)[nH]1)C1CCCN(C(=O)c2ccoc2)C1 (stereo not drawn) | 25 to 50
3 | O=C(CCNS(=O)(=O)c1ccc2c(c1)CCCC2)Nc1nnc(-c2ccccn2)[nH]1 | 25 to 50
4 | O=C(Nc1nnc(-c2ccccn2)[nH]1)c1cc(Cl)sc1Cl | 25 to 50
5 | O=C(CSCc1ccccn1)Nc1nnc(-c2ccccn2)[nH]1 | 25 to 50
6 | O=C(CCc1ccc(F)cc1)Nc1nnc(-c2ccccn2)[nH]1 | 25 to 50
7 | CCC(C)c1ccc(S(=O)(=O)N(C)C(c2ccccc2)c2ccccn2)cc1 (stereo not drawn) | 25 to 50
8 | Nc1nc(-c2ccccn2)nn1C(=O)CN1CCS(=O)(=O)CC1 | 25 to 50
9 | CC(C)Cc1noc(CN(C)CC23CC4CC(CC(C4)C2)C3)n1 | 25 to 50
10 | COc1ccc(Br)cc1CN(C)C(C)c1nnc(-c2ccc(C)cc2)o1 (stereo not drawn) | 25 to 50
11 | O=C(c1ccc(COc2ccccc2)o1)N1CCCc2ccc(F)cc21 | 25 to 50
12 | Cc1noc(C)c1CNc1ccccc1Cc1ccccc1 | 25 to 50
13 | CN(C)S(=O)(=O)c1ccc(CN2CCCc3cc(OC(F)(F)F)ccc32)o1 | 25 to 50
14 | Cc1ccc(OCCn2c(CN3CCCCC3)nc3ccccc32)cc1 | 25 to 50
15 | CSc1nnc(CN(Cc2ccccc2)Cc2ccccc2)s1 | 25 to 50
16 | CC(C)Cc1noc(CNc2cc(C(F)(F)F)ccc2N2CCCC2)n1 | 25 to 50
17 | COCCN(CCOC)c1nc(-c2ccccn2)nc2c1CCC2 | 25 to 50
18 | COC(=O)CCN(Cc1ccc(F)c(F)c1)c1nc(C(F)(F)F)ccc1C#N | 25 to 50
19 | O=C(Nc1nnc(-c2ccccn2)[nH]1)c1ccc(Oc2ccccc2)cc1 | 25 to 50
20 | CC(=O)Nc1cccc(CNc2cc(C)nc(-c3ccccn3)n2)c1 | 25 to 50
21 | COc1ccc2c(c1)CCCN2C(=O)CN(Cc1ccco1)S(=O)(=O)c1ccc(C)cc1 | 25 to 50
22 | Cc1nc(-c2ccccn2)[nH]c(=O)c1CCO | 25 to 50
23 | Cc1ccccc1OCCn1c(CN2CCCCC2)nc2ccccc21 | 25 to 50
24 | CCCCN(C(=O)c1cnn(-c2ccccc2)n1)c1ccccc1 | 25 to 50

Row | Structure (SMILES) | inhibition at 20 µM [%]
25 | O=c1[nH]c(-c2cc(OCC(F)F)ccn2)nc2cc(F)c(F)cc12 | 25 to 50
26 | CCN(CCNC(=O)c1cc(-c2cccnc2)on1)c1cccc(C)c1 | 25 to 50
27 | Cc1cc(C)n(CCCNC(=O)c2cc(S(=O)(=O)N3CCOCC3)ccc2N2CCCC2)n1 | 25 to 50
28 | COc1ccccc1OCc1ccc(C(=O)N2CCc3ccccc32)o1 | 25 to 50
29 | CN(C(=O)c1ccc(COc2ccccc2F)o1)c1nccs1 | 25 to 50
30 | O=C(CCCNc1ncccn1)Nc1nnc(-c2ccccn2)[nH]1 | 25 to 50
31 | Cc1cc(C)n2nc(CC(=O)N(Cc3ccccc3F)C3CC3)nc2n1 | 25 to 50
32 | CCN(Cc1ccc(S(=O)(=O)N(C)C)o1)c1ccccc1 | 25 to 50
33 | COc1ccc(OC)c(-c2csc(C3CC3)n2)c1 | 25 to 50
34 | CCOc1ccc(S(=O)(=O)N(CC(=O)N2CCc3ccccc32)Cc2ccco2)cc1 | 25 to 50
35 | COc1ccc(CC(=O)Nc2nc(-c3ccccn3)cs2)cc1 | 25 to 50
36 | O=C(c1ccc(-c2ccccc2Cl)o1)N(Cc1cccs1)C1CC1 | 25 to 50
37 | Cc1ccc(-c2cc(C(=O)N(C3CC3)C(C)c3ccco3)on2)cc1 (stereo not drawn) | 25 to 50
38 | COCCN(c1nc2ccccc2s1)S(=O)(=O)c1ccccc1 | 25 to 50
39 | COC(=O)c1cccc(CN2CCN(c3cccc(C(F)(F)F)c3)CC2)c1 | 25 to 50
40 | Cc1cccc(C(=O)Nc2ccc(OS(=O)(=O)N3CCc4ccccc4C3)cc2)c1 | 25 to 50
41 | CCCOc1ccc(OCCOC(=O)c2cccnc2SCCOc2ccc(OCCC)cc2)cc1 | 25 to 50
42 | CCc1cc(NNC(=O)c2ccc(C)s2)nc(-c2ccccn2)n1 | 25 to 50
43 | Cc1oc(-c2ccccc2)nc1CN(C)CC(=O)Nc1ccc(N2CCOCC2)cc1 | 25 to 50
44 | Cc1cccc(C)c1Oc1ccccc1NCc1nc(C2CC2)no1 | 25 to 50
45 | CC(C)Cc1csc2[nH]c(-c3ccccn3)nc(=O)c12 | 25 to 50
46 | COc1ccc(S(=O)(=O)N2CCCCCC2)cc1C(=O)NCCc1ccccc1 | 25 to 50
47 | O=C1COc2c(cccc2C(=O)Nc2nnc(-c3ccccn3)[nH]2)N1 | 25 to 50

Other lines, results leading:

Row | inhibition at 20 µM [%] | Structure (SMILES)
48 | 25 to 50 | Nc1nc(-c2ccccn2)nn1C(=O)Cc1csc(-c2ccccc2)n1
49 | 25 to 50 | Cc1cc(C(C)C)ccc1OCC(=O)N1N=CCC1(O)C(F)(F)F (stereo not drawn)
50 | 25 to 50 | O=C(Nc1nnc(-c2ccccn2)[nH]1)c1ccncc1
51 | 25 to 50 | CC(Nc1nc(-c2ccccn2)nc2c1CCC2)c1ccncc1 (stereo not drawn)
52 | 25 to 50 | CC(C1CC1)N(CC(F)(F)F)C(=O)Cc1ccc(Cl)cc1Cl (stereo not drawn)
53 | 25 to 50 | CCc1cc2c(=O)[nH]c(-c3ccccn3)nc2s1
54 | 25 to 50 | OC(CNc1nc(-c2ccccn2)nc2c1CCC2)COCC1CC1 (stereo not drawn)
55 | 25 to 50 | Cc1c(-c2ccccc2)sc2[nH]c(-c3ccccn3)nc(=O)c12
56 | 25 to 50 | O=C(CCNc1ncccn1)Nc1nnc(-c2ccccn2)[nH]1
57 | 25 to 50 | O=C(CCc1ccccn1)Nc1nnc(-c2ccccn2)[nH]1
58 | 25 to 50 | O=C(CCc1nc2ccccc2s1)Nc1nnc(-c2ccccn2)[nH]1
59 | 25 to 50 | CN1CCC(C(=O)Nc2nnc(-c3ccccn3)[nH]2)CC1=O (stereo not drawn)
60 | 25 to 50 | O=C(Nc1nc(-c2ccccn2)cs1)c1ccc(=O)[nH]c1
61 | 25 to 50 | O=C(Nc1nnc(-c2ccccn2)[nH]1)C1CC=CCC1 (stereo not drawn)
62 | 25 to 50 | CN(Cc1ccc(C(=O)NCC(F)(F)F)cc1)Cc1ccc(F)cc1Cl
63 | 25 to 50 | CCN(CC(=O)Nc1ccc(OC)cc1)Cc1coc(-c2ccc(C)cc2C)n1
64 | 25 to 50 | O=c1nc(-c2ccccn2)[nH]c2scc(-c3ccco3)c12
65 | 25 to 50 | COc1ccc(OC)c(S(=O)(=O)N(Cc2ccccc2)Cc2ccccc2)c1
66 | 25 to 50 | Cc1ccccc1Oc1ncccc1NCc1csc(-c2ccccn2)n1
67 | 25 to 50 | CN(Cc1ccccn1)Cc1nc2ccccc2n1C
68 | 25 to 50 | FC(F)(F)c1ccnc(N2CCN(CCc3ccncc3)CC2)n1
69 | 25 to 50 | CN(Cc1ccc(C(F)(F)F)cc1)Cc1cc2c(cc1O)CCC2
70 | 25 to 50 | OC1CCC(Nc2nc(-c3ccccn3)nc3scc(-c4ccccc4)c23)CC1 (stereo not drawn)
71 | 25 to 50 | Fc1ccc(OCc2nnc(SCCCc3ccccc3)o2)cc1
72 | 25 to 50 | Cc1nc(-c2ccccn2)nc(O)c1CCC(=O)NCc1ccccc1F

Row | inhibition at 20 µM [%] | Structure (SMILES)
73 | 25 to 50 | O=C(Cc1ccc2c(c1)CCCC2)Nc1nnc(-c2ccccn2)[nH]1
74 | 25 to 50 | Cc1ccc(S(=O)(=O)Nc2ccc(OS(=O)(=O)N(C)Cc3ccccc3)cc2)cc1
75 | 25 to 50 | CNC(=O)CNc1nc(-c2ccccn2)nc2scc(-c3ccccc3)c12
76 | 25 to 50 | Cc1ccc(C)c(NC(=O)c2ccccc2OCCOc2ccccc2)c1
77 | 25 to 50 | Cc1ccc(OCCSc2nnc(C(C)Oc3ccc(F)cc3)o2)cc1 (stereo not drawn)
78 | 25 to 50 | O=c1[nH]c(-c2ncccn2)nc2ccc(-c3cccc(C(F)(F)F)c3)cc12
79 | 25 to 50 | COc1ccc(-c2nc(C(=O)NC(C)c3ccccn3)cs2)cc1 (stereo not drawn)
80 | 25 to 50 | Cn1c(CNCc2ccccc2OCc2ccccc2)nc2ccccc21
81 | 25 to 50 | Cc1noc(CNc2cc(C(F)(F)F)ccc2N2CCCC2)n1
82 | 25 to 50 | CC(Oc1ccc(F)cc1)c1nnc(SCCOc2ccc(F)cc2)o1 (stereo not drawn)
83 | 25 to 50 | COc1ccc(CN(Cc2cccs2)C(=O)c2cc3ccccc3o2)cc1OC
84 | 25 to 50 | Cc1nc(-c2ccccn2)sc1C(=O)NCCNc1cnccn1
85 | 25 to 50 | COc1ccc(S(=O)(=O)N(CC(=O)N2CCCc3ccccc32)Cc2ccco2)cc1
86 | 25 to 50 | Cc1cccc(C)c1Oc1ccccc1NCc1nnc(C2CC2)o1
87 | 25 to 50 | Cc1cc(C)n(-c2ccc(C(=O)Nc3nnc(-c4ccccn4)[nH]3)cn2)n1
88 | 25 to 50 | FC(F)(F)c1ccc(N2CCCC2)c(NCc2nc(-c3ccco3)no2)c1
89 | 25 to 50 | NC(=O)c1cc(N2CCN(c3cccc(C(F)(F)F)c3)CC2)nc2ccccc12
90 | 25 to 50 | CCC1COCCN1c1nc(-c2ccccn2)nc2scc(-c3ccccc3)c12 (stereo not drawn)
91 | 25 to 50 | Cc1nc(CN(Cc2ccccc2[N+](=O)[O-])C(C)c2ccc(Cl)cc2)oc1C (stereo not drawn)
92 | 25 to 50 | Cc1nc(-c2ccc(F)cc2)sc1C(=O)NCCN(C)c1ccccc1
93 | 25 to 50 | CC(=O)N1CCC(Nc2nc(-c3ccccn3)nc3c2CCC3)C1 (stereo not drawn)
94 | 25 to 50 | Cc1nc(C2CN(Cc3ccccc3F)CCO2)no1 (stereo not drawn)
95 | 25 to 50 | Cc1cc(C)n(CCCNC(=O)c2cc(S(=O)(=O)N3CCCCC3)ccc2N2CCOCC2)n1
96 | 25 to 50 | c1ccc(-c2csc3nc(-c4ccccn4)nc(NCc4ccccn4)c23)cc1
